Common to all, as to test: Transcriptional activity, GAL4-PPAR LBD chimera / PLAP reporter in CV-1 cells
Holding throughout (assay type): cell-based

The target of one assay is T1, PPAR α (Homo sapiens, UniProt Q07869).
T1 construct: human PPAR 167-468 (PPARα); expressed in transfected cells; host or cells: CV-1 (ATCC CCL-70)
T1 sequence (Q07869 167-468): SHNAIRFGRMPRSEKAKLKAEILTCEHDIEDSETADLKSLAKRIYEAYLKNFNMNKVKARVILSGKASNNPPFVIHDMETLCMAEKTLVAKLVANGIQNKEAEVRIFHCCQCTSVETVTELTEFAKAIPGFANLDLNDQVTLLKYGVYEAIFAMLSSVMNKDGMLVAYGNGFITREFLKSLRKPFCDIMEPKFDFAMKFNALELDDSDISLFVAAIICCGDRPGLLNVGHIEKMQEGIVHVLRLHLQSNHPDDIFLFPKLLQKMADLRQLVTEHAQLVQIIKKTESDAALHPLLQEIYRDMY
As to conditions: GAL4-PPARα LBD (167-468), PLAP activity 24 hours after addition, read-out: Transcriptional activities EC50 PPAR α. The text has this:
(§1) A GAL4-PPAR LBD chimera expression vector was constructed by ligating human PPAR 167-468 (PPARα), 138-440 (NUC-1) and 174-475 (PPARγ) amino acid regions (LBD: Ligand Binding Domain) to a yeast transcriptional factor GAL4 1-147 amino acid region. As the reporter gene, PLAP (Placental Alkaline Phosphatase) was used, and this was ligated downstream of a TK promoter containing a 5-copy GAL4 DNA binding element to construct a vector. As host cells, CV-1 (ATCC CCL-70) was used. That is, CV-1 cells were spread at a density of 5×10^5 cells on a 35-mm dish and cultured in 10% FCS/DMEM for 24 hours, and using FuGENE 6 transfection reagent, the cells were co-transfected with the GAL4-PPAR LBD expression vector and GAL4 DBD-TK-PLAP expression vector. 24 hours after this transfection, the cells were spread again on a 96-well plate at a density of 1×10^4/well and further cultured for 24 hours. After 24 hours, the medium was exchanged with DMEM containing 10% FCS, which was previously treated at 65° C. for inactivating intrinsic alkaline phosphatase, and a test compound was added at an arbitrary concentration. The transcriptional activity was determined in terms of PLAP activity secreted 24 hours after addition of the compound, to calculate EC50. The PLAP activity was determined after adding 50 μl assay buffer and 50 μl chemoluminescence substrate to 10 μl culture supernatant and incubating the mixture at room temperature for 1 hour. The transcriptional activities for PPAR, PPARβ(δ) and PPARγ are shown respectively in Table 1.

The next assay deals with T2, PPAR β (Homo sapiens, UniProt Q03181).
T2 construct: 138-440 (NUC-1); expressed in transfected cells; host or cells: CV-1 (ATCC CCL-70)
T2 sequence (Q03181 138-440): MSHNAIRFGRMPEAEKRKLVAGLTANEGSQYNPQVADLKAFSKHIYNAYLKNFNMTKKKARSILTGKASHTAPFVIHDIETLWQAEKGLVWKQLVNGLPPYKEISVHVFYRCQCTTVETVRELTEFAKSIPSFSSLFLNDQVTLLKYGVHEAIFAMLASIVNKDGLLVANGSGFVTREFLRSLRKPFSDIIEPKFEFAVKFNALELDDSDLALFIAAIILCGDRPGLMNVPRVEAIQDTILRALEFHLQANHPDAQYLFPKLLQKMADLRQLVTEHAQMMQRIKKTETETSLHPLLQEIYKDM
As to conditions: GAL4-NUC-1 LBD (138-440), PLAP activity 24 hours after addition, read-out: Transcriptional activities EC50 PPAR β.
Excerpt: as §1

The target in another assay is T3, PPAR γ (Homo sapiens, UniProt P37231).
T3 construct: 174-475 (PPARγ); expressed in transfected cells; host or cells: CV-1 (ATCC CCL-70)
T3 sequence (P37231 174-475 isoform P37231-2): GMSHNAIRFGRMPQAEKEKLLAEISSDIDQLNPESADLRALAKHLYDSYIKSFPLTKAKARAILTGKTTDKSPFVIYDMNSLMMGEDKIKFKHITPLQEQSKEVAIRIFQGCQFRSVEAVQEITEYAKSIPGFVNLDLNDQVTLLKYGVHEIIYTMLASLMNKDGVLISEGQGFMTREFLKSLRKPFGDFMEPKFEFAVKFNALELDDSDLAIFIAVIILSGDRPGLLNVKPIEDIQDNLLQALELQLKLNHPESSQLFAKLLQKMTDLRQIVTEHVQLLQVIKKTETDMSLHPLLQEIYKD
As to conditions: GAL4-PPARγ LBD (174-475), PLAP activity 24 hours after addition, read-out: Transcriptional activities EC50 PPAR γ.
Excerpt: as §1

The structures appear in SMILES notation. pEC50: −log10 of the molar value.

The term pEC50 denotes the EC50 on a negative log10 scale, so that one unit is a factor of ten.

With `CC(C)OC(Cc1ccnc(OCCOc2ccc(Cl)cc2Cl)c1)C(=O)O` (stereo not drawn) [Example 1, 3-{2-[2-(2,4-Dichlorophenoxy)ethoxy]-4-pyridyl}-2-isopropoxypropanoic acid], the pEC50 on PPAR α is 8.25; on PPAR β it was 5.85; on PPAR γ, 7.16.

As to `CCOC(Cc1ccnc(OCCOc2ccc(C(F)(F)F)cc2)c1)C(=O)O` (stereo not drawn) [Example 19, 2-Ethoxy-3-(2-{2-[4-(trifluoromethyl)phenoxy]ethoxy}-4-pyridyl)propanoic acid], the pEC50 is 8.31 at PPAR α, 6.47 on PPAR β and 7.19 on PPAR γ.

As to `CCOC(Cc1ccnc(OCCOc2ccc(C(C)(C)C)cc2)c1)C(=O)O` (stereo not drawn) [Example 25, 3-(2-{2-[4-(tert-Butyl)phenoxy]ethoxy}-4-pyridyl)-2-ethoxypropanoic acid], the values for the pEC50 on PPAR α, on PPAR β and at PPAR γ were 8.57, 5.80 and 7.12, respectively.

For the origin of these results see US7253178B2, “Carboxylic acids” (Eisai Co., Ltd., priority 2001, dated 2007).
